Reference: article PMC9131456, “Structure-Based Discovery of Lipoteichoic Acid Synthase Inhibitors” (Journal of Chemical Information and Modeling, 2022)

Legend:
[1] = test system: S. aureus (strain Newman); experiment: Thin-section TEM ultrastructure analysis; type: cell-based; conditions: 5 μM compound 4 or 100 μM compound 9
Protocol: The TEM imaging protocol was adapted from Garufi et al.[68]S. aureus (strain Newman) was grown in 20 mL of MH2 broth with either DMSO, 5 μM of compound 4 or 100 μM of compound 9 at 37 °C. When the control culture had reached an OD600nm ∼ 1, the cells were pelleted at 1520g and submitted to the Cambridge Advanced Imaging Centre for preimaging processing. Briefly, the cells were washed with water and fixed with 2% glutaraldehyde-4% paraformaldehyde in 0.1 M sodium cacodylate buffer (pH 7.2) for 2 h. After fixation, the cells were stained, dehydrated, and embedded in Spurr resin. The resin was cut into thin sections and viewed using a Tecnai G2 Transmission Electron Microscope at 200 kV with a bottom-mounted AMT CCD digital camera.

MRSA strain COL = experiment: Potentiation (checkerboard synergy) assay; type: cell-based, S. aureus
Protocol: All the compounds tested in this study were dissolved in dimethyl sulfoxide (DMSO) at an initial stock concentration of 20 mM and stored at −20 °C. These compounds were tested for their antimicrobial activity using the microdilution broth method[66] following the protocol described by Richter et al.[30] Briefly, overnight cultures of S. aureus (strain Newman) grown at 37 °C in cation-adjusted Mueller Hinton II (MH2) broth were adjusted to an OD600nm of 0.6 before back-diluted with a factor of 1:2000 with the same broth. After that, 200 μL of the diluted bacterial culture were dispensed into each well of 96-well plates supplemented with the compounds to the desired concentrations. The plates were then sealed with a moisture membrane barrier and incubated statically for 20 h at 37 °C. After that, the OD600nm values of the cultures in each well were measured using a CLARIOstar microplate reader (BMG Labtech). The procedures for the potentiation assays were by large the same as described above with some variations. In such assays, MRSA strain COL was grown in the 96-well plates supplemented with different concentrations of compound 9 with methicillin, carbenicillin, or polymyxin B in a checkerboard format. Their synergistic effects were quantified by OD600nm measurements using a CLARIOstar microplate reader (BMG Labtech).

[2] = test system: LTA production in S. aureus (strain RN4220); experiment: Western blot (immunoblotting) of LTA in S. aureus cell extracts; type: cell-based; conditions: for LTA production: Western blot of S. aureus cell extracts, 10 μM in Figure S14, 100 μM for compound 8
Protocol: The procedures of LTA detection using Western Blot had previously been reported by Gründling et al.[52] To determine the effect of the compounds on LTA production, 10 mL cultures of S. aureus (strain RN4220) in MH2 broth were incubated in an orbital shaker at 37 °C with either the compounds or DMSO. When the control cultures had reached an OD600nm ∼ 1, the bacteria were pelleted and the OD600nm of the cultures normalized by resuspension with the appropriate amount of MH2 broth. Subsequently, 1 mL from each cultures was mixed with 0.5 mL of 0.1 mm glass beads, and the bacteria were lyzed by vortexing at 4 °C for 45 min. After lysis, glass beads were removed by centrifugation at 200g, and the supernatants were transferred to a new tube. The membrane-associated LTA from each culture were pelleted by an additional centrifugation step of the supernatant at 16,000g for 15 min before resuspension in 30 μL of 2× SDS. The samples were boiled at 80 °C for 20 min, and the solubilized fractions were loaded onto 15% SDS-polyacrylamide gels prior to electrophoresis at 120 V for 1.5 h. The LTA on the gels were electrotransferred onto FL-immobilon PVDF membranes at 25 V for another 1.5 h. After the electrotransfer, the membranes were blocked with 5% skimmed milk for 1 h and incubated with the antimouse LTA antibody (clone G43J, Thermo Fisher Scientific; 1:1000 dilution) overnight at 4 °C. After washing, the membranes were incubated with antimouse IRDye 680RD (1:10,000 dilution) for 1 h, washed, and visualized using the Odyssey CLx Imaging System.

[3] = test system: S aureus (strain Newman) biofilm; experiment: Biofilm assay (crystal violet); type: cell-based; conditions: 20 h, compound tested at 50, 25 and 12.5 μM
Protocol: Biofilm assays were carried out on 96-well flat-bottom plates using the protocol described by […] et al.[48] Briefly, S aureus (strain Newman) was grown statically in 96-well plates at 37 °C in Tryptic soy broth supplemented with 0.5% glucose. Each well was additionally supplemented with either DMSO or compound 9 to concentrations of 50, 25, and 12.5 μM. After 20 h, the bacterial cultures from the plates were removed, and each well was rinsed with 150 μL of sterilized distilled water thrice. The plates were then incubated for 1 h at 60 °C. After that, the biofilm in each well was stained with 0.05% (w/v) of crystal violet solution using the protocol described by O'Toole.[67] Finally, the stained biofilms were solubilized with 30% acetic acid and quantified at OD600nm using the BMG Labtech CLARIOstar microplate reader.

[4] = test system: S. aureus (strain Newman); experiment: Non-lethal S. aureus lung infection mouse model; type: in vivo, BALB/c female mice; conditions: single intranasal dose of 300 μg 3 h postinfection; lungs collected 24 h postinfection; 5 × 10^7 CFU intranasal
Source text: All in vivo experiments were done at the University of Liverpool under the UK Animals (Scientific Procedures) Act 1986 guidelines. The protocols were approved by the UK Home Office and by the University of Liverpool Animal Welfare and Ethics Committee. Six to eight week old BALB/c female mice (Charles River, UK) were used in the study after being left to acclimatize for a minimum of 7 days prior to experimentation. Mice were intranasally infected with 5 × 10^7 CFU of the S. aureus (strain Newman) in 50 μL of sterile phosphate-buffered saline (PBS). The bacterial dose was prepared by incubating 50 μL of an overnight culture in brain heart infusion (BHI) broth (Oxoid, Thermo Fisher Scientific, UK) into 5 mL of fresh BHI. Once the culture reached an OD600 = 2–3, the bacterial numbers were adjusted to the desired dose using sterile PBS. Three hours postinfection, mice were intranasally treated with either 50 μL of sterile PBS (control) or with 300 μg of compounds 1771 and compound 4 dissolved in 50 μL of sterile PBS. The final DMSO concentration was 5%, and the PBS control also contained 5% DMSO. Mice were culled 24 h postinfection; lungs were collected, homogenized, and serially diluted to determine CFU counts.[70] Significant differences were determined using the unpaired two-tailed Student t-test (p = 0.0013).

[5] = MRSA strain COL, compound 9 at subinhibitory 12.5 μM, checkerboard

Row | Compound | ultrastructure of treated S. aureus (TEM) [1] | reduction of the minimum inhibitory concentration of carbenicillin (MRSA strain COL; [5]) [fold] | reduction of the minimum inhibitory concentration of methicillin (MRSA strain COL; [5]) [fold] | increase in sensitivity toward polymyxin B (MRSA strain COL; MRSA strain treated with compound 9, checkerboard) [fold] | electrophoretic mobility of the LTA extracted from treated S. aureus ([2]; Western blot, 100 μM compound) | reduction in biofilm attachment [3] [%] | reduction in recoverable colonies from the lungs [4] [log] | LTA production [2] | LTA production ([2]; listed as compound 4)
1 | S=C(Nc1ccc(Cl)cc1)Nc1ccc(Sc2nc3ccccc3[nH]2)cc1 [Compound 9] | swollen S. aureus cells with a thickened peptidoglycan layer and cell division defects | 32 | 16 | 4 | smearing effect | 50 | – | – | –
2 | O=C(COC(=O)c1cn(-c2ccccc2)nc1-c1cccs1)Nc1nnc(-c2ccccc2)o1 [Compound 4] | – | – | – | – | – | – | 2 | able to reduce LTA production | decrease LTA production in a dose-dependent manner
